Entries after “also recorded” stand apart in the source; their conditions may differ.
System: cynomolgus monkeys
Assay: Delayed match-to-sample (DMTS) task
Type: in vivo, cynomolgus monkey (Macaca fascicularis)
Settings: 0.06 mg/kg, p.o., 6 h prior to testing
Protocol: DMTS tasks were performed using 4–6 years old male cynomolgus monkeys (Macaca fascicularis) weighing 4–6 kg as previously described, using a Cambridge Neuropsychological Test Automated Battery (CANTAB) system (CeNes, Cambridge, UK). Monkeys were maintained at 80% of free-feeding body weight throughout the experiment. Details are described in the Supplementary Information.
The experiment was performed using 4-6 years old male cynomolgus monkeys (Macaca fascicularis) weighing 4-6 kg. Monkeys were maintained at 80% of free-feeding body weight throughout the experiment. Four monkeys were trained to perform DMTS task using a Cambridge Neuropsychological Test Automated Battery (CANTAB) system (CeNes, Cambridge, UK) (Weed et al., 1999). Briefly, a trial was initiated by presentation of an image of a sample object on the screen. The monkey had to touch this object on the screen within 30 s. Then, the sample object was diminished from the screen, and a variable delay (0, 4, 8, and 16 s) was ensured. After the delay, the sample object was re-presented together with three other objects. The monkey had to choose the sample object from the four objects and a collect choice was reinforced by the food reward. The ITI was 5 s and one session consisted of 96 trials (24 trials of each delay of 0, 4, 8, and 16 s). […] The correct responses were recorded for all trials during test sessions. […]

CC1=CN2CCS(=O)(=O)N=C2C(c2ccc(OC3CCCCC3)cc2)=N1 [TAK-653, 9-[4-(Cyclohexyloxy)phenyl]-7-methyl-3,4-dihydropyrazino[2,1-c][1,2,4]thiadiazine 2,2-dioxide]
DMTS accuracy at 16-s delay interval: significantly ameliorated; also recorded: significantly increased

— paper PMC8282797, “Strictly regulated agonist-dependent activation of AMPA-R is the key characteristic of TAK-653 for robust synaptic responses and cognitive improvement” (Scientific Reports, 2021)
